In patent US20100324086A1, “COMPOUNDS AND METHODS” (Novasaid AB, priority 2008, published 2010):

Each compound was assayed against T1, recombinant, membrane-bound mPGES-1 (Homo sapiens, UniProt O14684) (assay: Thiobarbituric acid assay (TBA-MDA assay), inhibition of mPGES-1). Details: remaining PGH2 measured at 535 nm.
T1 sequence (O14684 1-152): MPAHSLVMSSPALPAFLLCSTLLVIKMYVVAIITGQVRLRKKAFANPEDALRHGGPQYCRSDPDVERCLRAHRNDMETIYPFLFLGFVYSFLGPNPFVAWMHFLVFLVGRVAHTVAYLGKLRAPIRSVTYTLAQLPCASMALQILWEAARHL
Type: biochemical
Source text: Malondialdehyde is a product of lipid peroxidation and reacts with thiobarbituric acid forming a red product that absorbs at 535 nm (W. G. Niehaus, Jr and B. Samuelsson, Eur. J. Biochem 6, 126 (1968). The extinction coefficient of the TBA-MDA conjugate is 1.56×10^5 M^−1 cm^−1 (E. D. Wills. Biochem. J. 113, 315 (1969).
The method used for detection of inhibition of mPGES-1 is based on the detection of the amount of remaining PGH2. This method was described more than 20 years ago by Basevich et al (Bioorg. Khim. 1983, 9(5), 658-665.
The assay used was a modified variant and used citric acid instead of the TCA-TBA-HCl reagent described in the original assay. In this assay recombinant, membrane-bound mPGES-1 was incubated with PGH2. The reaction was stopped by adding citric acid with a final pH of 3 and a large excess of FeCl2 (20 mM) to convert any remaining PGH2 into MDA and […]. TBA reagent was finally added (0.67%) and the samples were heated at 80° C. for 30 min. The absorbance of the conjugate was measured at 535 nm.
The product of mPGES-1 (PGE2) was not measured directly in this assay, but rather the remaining substrate (PGH2) indirectly by adding FeCl2 that converts PGH2 into […] and 12-HHT. As a positive control a known mPGES-1 inhibitor, MK-886, was used and the new inhibitors were compared with the inhibition of MK-886 (% of MK-886 inhibition).

Row | Structure (SMILES) | IC50
1 | O=C(Nc1cccc2cccnc12)c1cccc(NC(=O)c2ccccc2Cl)c1 [Compound 8, 3-(2-Chloro-benzoylamino)-N-(quinolin-8-yl-)-benzamide] | 800 nM
2 | O=C(NC1CCc2ccccc21)c1cccc(NC(=O)c2ccccc2Cl)c1 (centres unmarked) [Compound 34, 3-(2-Chloro-benzoylamino)-N-indan-1-yl-benzamide] | 720 nM
3 | O=C(Nc1ccc(C(F)(F)F)cn1)c1cccc(NC(=O)c2ccccc2C(F)(F)F)c1 [Compound 153, 3-[2-(Trifluoromethyl)-benzoylamino]-N-(5-trifluoromethyl-pyridine-2-yl)-benzamide] | 49 nM
4 | O=C(NCc1ccccc1)c1cccc(NC(=O)c2ccccc2Cl)c1 [Compound 2, 3-(2-Chloro-benzoylamino)-N-benzyl-benzamide] | 5800 nM
5 | O=C(Nc1ccc2ccccc2n1)c1cccc(NC(=O)c2ccccc2[N+](=O)[O-])c1 [Compound 53, 3-(2-Nitro-benzoylamino)-N-quinolin-2-yl-benzamide] | 500 nM
6 | O=C(Nc1ccc2ccccc2n1)c1cccc(NC(=O)c2ccccc2Br)c1 [Compound 38, 3-(2-Bromo-benzoylamino)-N-quinolin-2-yl-benzamide] | 140 nM
7 | O=C(Nc1cccc(C(=O)Nc2ccc3ccccc3n2)c1)c1cccc(Cl)c1 [Compound 29, 3-(3-Chloro-benzoylamino)-N-quinolin-2-yl-benzamide] | 4200 nM
8 | COc1cccc(OC)c1C(=O)Nc1cccc(C(=O)NCc2cccc3ccccc23)c1 [Compound 108, 2,6-Dimethoxy-N-{3-[(naphthalen-1-ylmethyl)-carbamoyl]-phenyl}-benzamide] | 2200 nM
9 | O=C(Nc1ccc2ccccc2n1)c1cccc(NC(=O)c2ccccc2-c2cccs2)c1 [Compound 49, 3-(2-Thiophene-2-yl-benzoylamino)-N-quinolin-2-yl-benzamide] | 1200 nM
10 | O=C(NCc1cccc2ccccc12)c1cccc(NC(=O)c2ccccc2-c2cccs2)c1 [Compound 116, N-{3-[(Naphthalen-1-ylmethyl)-carbamoyl]-phenyl}-2-thiopene-2-yl-benzamide] | 2500 nM
11 | COc1ccccc1C(=O)Nc1cccc(C(=O)Nc2ccc3ccccc3n2)c1 [Compound 41, 3-(2-Methoxy-benzoylamino)-N-quinolin-2-yl-benzamide] | 3700 nM
12 | O=C(Nc1nc2cc(Cl)ccc2o1)c1cccc(NC(=O)c2ccccc2C(F)(F)F)c1 [Compound 164, N-(3-(5-chlorobenzo[d]oxazol-2-ylcarbamoyl)phenyl)-2-(trifluoromethyl)benzamide] | 68 nM
13 | O=C(NCc1cccc2ccccc12)c1cccc(NC(=O)c2c(Cl)cccc2Cl)c1 [Compound 105, 2,6-Dichloro-N-{3-[(naphthalen-1-ylmethyl)-carbamoyl]-phenyl}-benzamide] | 520 nM
14 | O=C(Nc1cccc(C(=O)NC2CCCCCC2)c1)c1cc(C(F)(F)F)cc(C(F)(F)F)c1 [Compound 54, N-(3-Cycloheptylcarbamoyl-phenyl)-3,5-bis-trifluoromethyl-benzamide] | 1200 nM
15 | Cc1cc(NC(=O)c2cccc(NC(=O)c3ccccc3Cl)c2)c2ccccc2n1 [Compound 3, 3-(2-Chloro-benzoylamino)-N-(2-methyl-quinolin-4-yl)-benzamide] | 1100 nM
16 | O=C(NC1CCCCCC1)c1cccc(NC(=O)c2ccccc2F)c1 [Compound 63, N-(3-Cycloheptylcarbamoyl-phenyl)-2-fluorobenzamide] | 460 nM
17 | O=C(NC1CCCCCC1)c1cccc(NC(=O)c2ccccc2Cl)c1 [Compound 36, 3-(2-Chloro-benzoylamino)-N-cycloheptyl-benzamide] | 330 nM
18 | O=C(Nc1ccc(-c2ccccc2)cn1)c1cccc(NCc2ccccc2C(F)(F)F)c1 [Compound 166, 3-[2-(Trifluoromethyl)-benzylamino]-N-(5-phenyl-pyridine-2-yl)-benzamide] | 53 nM
19 | O=C(Nc1ccc2ncsc2c1)c1cccc(NC(=O)c2ccccc2Cl)c1 [Compound 14, 3-(2-Chloro-benzoylamino)-N-(benzothiazol-6-yl)-benzamide] | 900 nM

The remaining lines, values ahead:

Row | IC50 | Structure (SMILES)
20 | 290 nM | C[C@H](NC(=O)c1cccc(NC(=O)c2ccccc2C(F)(F)F)c1)c1cccc2ccccc12 [Compound 77, N-[3-((S)-1-Naphthalen-1-yl-ethylcarbamoyl)-phenyl]-2-trifluoromethyl-benzamide]
21 | 1100 nM | O=C(NCc1cccc2ccccc12)c1cccc(NC(=O)c2ccccc2F)c1 [Compound 104, 2-Fluoro-N-{3-[(naphthalen-1-ylmethyl)-carbamoyl]-phenyl}-benzamide]
22 | 120 nM | C[C@@H](NC(=O)c1cccc(NC(=O)c2ccccc2C(F)(F)F)c1)c1cccc2ccccc12 [Compound 93, N-[3-((R)-1-Naphthalen-1-yl-ethylcarbamoyl)-phenyl]-2-trifluoromethyl-benzamide]
23 | 200 nM | C[C@H](NC(=O)c1cccc(NC(=O)c2ccccc2I)c1)c1cccc2ccccc12 [Compound 79, 2-Iodo-N-[3-((S)-1-naphthalen-1-yl-ethylcarbamoyl)-phenyl]-benzamide]
24 | 230 nM | C[C@H](NC(=O)c1cccc(NC(=O)c2ccccc2Br)c1)c1cccc2ccccc12 [Compound 72, 2-Bromo-N-[3-((S)-1-naphthalen-1-yl-ethylcarbamoyl)-phenyl]-benzamide]
25 | 2000 nM | O=C(NCc1ccccc1N1CCOCC1)c1cccc(NC(=O)c2ccccc2C(F)(F)F)c1 [Compound 149, N-(2-morpholin-4-yl-benzyl)-3-(2-trifluoromethyl-benzoylamino)-benzamide]
26 | 220 nM | O=C(NCc1ccccc1Cl)c1cccc(NC(=O)c2ccccc2C(F)(F)F)c1 [Compound 143, N-(2-Chloro-benzyl)-3-(2-trifluoromethyl-benzoylamino)-benzamide]
27 | 370 nM | C[C@H](NC(=O)c1cccc(NC(=O)c2ccccc2Cl)c1)c1cccc2ccccc12 [Compound 85, 2-Chloro-N-[3-((S)-1-naphthalen-1-yl-ethylcarbamoyl)-phenyl]-benzamide]
28 | 65 nM | O=C(NCc1ccccc1Br)c1cccc(NC(=O)c2ccccc2C(F)(F)F)c1 [Compound 135, N-(2-Bromo-benzyl)-3-(2-trifluoromethyl-benzoylamino)-benzamide]
29 | 130 nM | O=C(NCc1cccc2ccccc12)c1cccc(NC(=O)c2ccccc2C(F)(F)F)c1 [Compound 109, N-{3-[(Naphthalen-1-ylmethyl)-carbamoyl]-phenyl}-2-trifluoromethyl-benzamide]
30 | 190 nM | O=C(Nc1ccc2ccccc2n1)c1cccc(NC(=O)c2ccccc2C(F)(F)F)c1 [Compound 43, 3-(2-Trifluoromethyl-benzoylamino)-N-quinolin-2-yl-benzamide]
31 | 690 nM | Cc1ccccc1C(=O)Nc1cccc(C(=O)N[C@@H](C)c2cccc3ccccc23)c1 [Compound 78, 2-Methyl-N-[3-((S)-1-naphthalen-1-yl-ethylcarbamoyl)-phenyl]-benzamide]
32 | 160 nM | O=C(NCc1cccc(Br)c1)c1cccc(NC(=O)c2ccccc2C(F)(F)F)c1 [Compound 138, N-(3-Bromo-benzyl)-3-(2-trifluoromethyl-benzoylamino)-benzamide]
33 | 470 nM | C[C@H](NC(=O)c1cccc(NC(=O)c2c(Cl)cccc2Cl)c1)c1cccc2ccccc12 [Compound 74, 2,6-Dichloro-N-[3-((S)-1-naphthalen-1-yl-ethylcarbamoyl)-phenyl]-benzamide]
34 | 1300 nM | COc1cccc(OC)c1C(=O)Nc1cccc(C(=O)N[C@H](C)c2cccc3ccccc23)c1 [Compound 92, 2,6-Dimethoxy-N-[3-((R)-1-naphthalen-1-yl-ethylcarbamoyl)-phenyl]-benzamide]
35 | 600 nM | C[C@@H](NC(=O)c1cccc(NC(=O)c2c(Cl)cccc2Cl)c1)c1cccc2ccccc12 [Compound 89, 2,6-Dichloro-N-[3-((R)-1-naphthalen-1-yl-ethylcarbamoyl)-phenyl]-benzamide]
36 | 70 nM | O=C(NCc1ccccc1C(F)(F)F)c1cccc(NC(=O)c2ccccc2C(F)(F)F)c1 [Compound 134, 3-(2-Trifluoromethyl-benzoylamino)-N-(2-trifluoromethyl-benzyl)-benzamide]
37 | 6900 nM | CCc1ccccc1C(=O)Nc1cccc(C(=O)Nc2ccc3ccccc3n2)c1 [Compound 52, 3-(2-Ethyl-benzoylamino)-N-quinolin-2-yl-benzamide]

Each compound was assayed on A549 lung carcinoma cells (assay: A549 assay, PGE2 content in supernatant by EIA). Details: Homo sapiens, A549; TNFalfa and IL-1beta induced 16 h; 30 min compound, then 10 μM arachidonic acid 30 min.
Type: cell-based
Method: A549 lung carcinoma cells, seeded at a density of 10,000 cells/well, were grown in 96 well tissue culture plates. TNFalfa (5 ng/ml) and […] (5 ng/ml) were added and the cells were incubated for 16 hours. Cells were washed in PBS and test compounds at the appropriate concentration in HBSS/0.1% BSA were added. After 30 minutes incubation with test compounds, 10 μM arachidonic acid was added and cells were further incubated for 30 minutes. Supernatant was collected and analyzed for PGE2 content by EIA according to manufacturer's instructions.

Row | Structure (SMILES) | EC50
38 | O=C(NC1CCc2ccccc21)c1cccc(NC(=O)c2ccccc2Cl)c1 (centres unmarked) [Compound 34, 3-(2-Chloro-benzoylamino)-N-indan-1-yl-benzamide] | 5400 nM
39 | O=C(Nc1ccc(C(F)(F)F)cn1)c1cccc(NC(=O)c2ccccc2C(F)(F)F)c1 [Compound 153, 3-[2-(Trifluoromethyl)-benzoylamino]-N-(5-trifluoromethyl-pyridine-2-yl)-benzamide] | 500 nM

The remaining lines, values ahead:

Row | EC50 | Structure (SMILES)
40 | 400 nM | C[C@H](NC(=O)c1cccc(NC(=O)c2ccccc2C(F)(F)F)c1)c1cccc2ccccc12 [Compound 77, N-[3-((S)-1-Naphthalen-1-yl-ethylcarbamoyl)-phenyl]-2-trifluoromethyl-benzamide]
41 | 640 nM | O=C(NCc1cccc2ccccc12)c1cccc(NC(=O)c2ccccc2F)c1 [Compound 104, 2-Fluoro-N-{3-[(naphthalen-1-ylmethyl)-carbamoyl]-phenyl}-benzamide]
42 | 450 nM | C[C@@H](NC(=O)c1cccc(NC(=O)c2ccccc2C(F)(F)F)c1)c1cccc2ccccc12 [Compound 93, N-[3-((R)-1-Naphthalen-1-yl-ethylcarbamoyl)-phenyl]-2-trifluoromethyl-benzamide]
43 | 1230 nM | C[C@H](NC(=O)c1cccc(NC(=O)c2ccccc2I)c1)c1cccc2ccccc12 [Compound 79, 2-Iodo-N-[3-((S)-1-naphthalen-1-yl-ethylcarbamoyl)-phenyl]-benzamide]

Same assay, conditions: TNFalfa and IL-1beta induced 16 h; 30 min compound, then 10 μM arachidonic acid 30 min

Row | EC50 | Structure (SMILES)
44 | 2960 nM | O=C(Nc1cccc2cccnc12)c1cccc(NC(=O)c2ccccc2Cl)c1 [Compound 8, 3-(2-Chloro-benzoylamino)-N-(quinolin-8-yl-)-benzamide]
